Results published in patent publication US20230390319A1, “INTERFERON GENE STIMULATOR COMPOSITION COMPRISING INDOLIZINE DERIVATIVE AS ACTIVE INGREDIENT” (AJOU UNIVERSITY INDUSTRY-ACADEMIC COOPERATION FOUNDATION, priority 2020, published 2023).

How the values were obtained:
[1] = test system: ISRE reporter signal; experiment: ISRE luciferase reporter assay, THP-1 cells co-treated with compound and cGAMP; type: cell-based, Human; conditions: THP-1 cells, 20 μM of each compound, co-treated with cGAMP (1 μg/ml), 24 hours
Experimental: (§1) Human monocytic THP-1 wild-type (WT) and STING knockout (KO) cell lines were obtained from InvivoGen. Cells were cultured in 1×RPMI 1640 medium containing 10% fetal bovine serum (FBS, Hyclone), 2.05 mM L-glutamine (Hyclone) and 1% penicillin (Corning) in a humidified incubator at 37° C. under 5% CO2.
To confirm immune responses, THP-1 cells were placed in 384-well plates (Grenier), and treated with each compound and cGAMP (1 μg/ml), and after 24 hours, ISRE activity was analyzed. QUANTI-Luc assay (InvivoGen) was performed using the cell culture supernatant to confirm the luciferase reporter gene signal. Fluorescent signals were measured using a TECAN micro plate reader SPARK, and the results were normalized to DMSO control.
(§2) THP-1 cells were co-treated with each of 86 indolizine derivatives and a very small amount of cGAMP (1 μg/ml), the immune response of the THP-1 cells was examined by ISRE reporter assay, and the cytotoxicity of co-treatment was also evaluated (Table 1). All results were compared by normalization to the reporter assay results obtained by treatment with cGAMP alone. […] Thus, Compound 42 was used in subsequent experiments.

[2] = test system: THP-1 cells; experiment: Cell viability assay (CellTiter Clo) in THP-1 cells; type: cell-based, Human; conditions: THP-1 cells, 20 μM of each compound, co-treated with cGAMP (1 μg/ml)
Experimental: as §1
Cells were analyzed using CellTiter Clo (CTG, Promega). […] was measured using a TECAN micro plate reader SPARK. Results were normalized to DMSO control.
as §2

| Compound | Normalized RU (relative unit of ISRE reporter signal) [1] | Normalized cell viability [2] |
| --- | --- | --- |
| O=C(c1ccc(C(F)(F)F)cc1)c1cc(-c2ccc(C(F)(F)F)cc2)c2cc(C(F)(F)F)ccn12 [Compound 1] | 1.46 | 1.10 |
| CC(=O)c1ccc(-c2cc(C(=O)c3ccc(C(F)(F)F)cc3)n3ccc(C(F)(F)F)cc23)cc1 [Compound 2] | 1.42 | 1.03 |
| O=C(c1ccc(C(F)(F)F)cc1)c1cc(-c2ccccc2)c2cc(C(F)(F)F)ccn12 [Compound 3] | 1.40 | 1.04 |
| COc1ccc(-c2cc(C(=O)c3ccc(C(F)(F)F)cc3)n3ccc(C(F)(F)F)cc23)cc1 [Compound 4] | 1.33 | 1.05 |
| CN(C)c1ccc(-c2cc(C(=O)c3ccc(C(F)(F)F)cc3)n3ccc(C(F)(F)F)cc23)cc1 [Compound 5] | 1.58 | 1.05 |
| O=C(c1ccccc1)c1cc(-c2ccc(C(F)(F)F)cc2)c2cc(C(F)(F)F)ccn12 [Compound 6] | 1.38 | 1.19 |
| CC(=O)c1ccc(-c2cc(C(=O)c3ccccc3)n3ccc(C(F)(F)F)cc23)cc1 [Compound 7] | 1.54 | 1.20 |
| O=C(c1ccccc1)c1cc(-c2ccccc2)c2cc(C(F)(F)F)ccn12 [Compound 8] | 1.18 | 1.06 |
| COc1ccc(-c2cc(C(=O)c3ccccc3)n3ccc(C(F)(F)F)cc23)cc1 [Compound 9] | 1.21 | 1.03 |
| CN(C)c1ccc(-c2cc(C(=O)c3ccccc3)n3ccc(C(F)(F)F)cc23)cc1 [Compound 10] | 1.67 | 1.21 |
| COc1ccc(C(=O)c2cc(-c3ccc(C(F)(F)F)cc3)c3cc(C(F)(F)F)ccn23)cc1 [Compound 11] | 2.02 | 1.16 |
| COc1ccc(C(=O)c2cc(-c3ccc(C(C)=O)cc3)c3cc(C(F)(F)F)ccn23)cc1 [Compound 12] | 1.31 | 1.25 |
| COc1ccc(C(=O)c2cc(-c3ccccc3)c3cc(C(F)(F)F)ccn23)cc1 [Compound 13] | 1.62 | 1.14 |
| COc1ccc(C(=O)c2cc(-c3ccc(OC)cc3)c3cc(C(F)(F)F)ccn23)cc1 [Compound 14] | 1.48 | 1.30 |
| COc1ccc(C(=O)c2cc(-c3ccc(N(C)C)cc3)c3cc(C(F)(F)F)ccn23)cc1 [Compound 15] | 1.18 | 1.17 |
| CCN(CC)c1ccc(C(=O)c2cc(-c3ccc(C(F)(F)F)cc3)c3cc(C(F)(F)F)ccn23)cc1 [Compound 16] | 1.66 | 1.22 |
| CCN(CC)c1ccc(C(=O)c2cc(-c3ccc(C(C)=O)cc3)c3cc(C(F)(F)F)ccn23)cc1 [Compound 17] | 1.45 | 1.29 |
| CCN(CC)c1ccc(C(=O)c2cc(-c3ccccc3)c3cc(C(F)(F)F)ccn23)cc1 [Compound 18] | 1.85 | 1.17 |
| CCN(CC)c1ccc(C(=O)c2cc(-c3ccc(OC)cc3)c3cc(C(F)(F)F)ccn23)cc1 [Compound 19] | 1.58 | 1.29 |
| CCN(CC)c1ccc(C(=O)c2cc(-c3ccc(N(C)C)cc3)c3cc(C(F)(F)F)ccn23)cc1 [Compound 20] | 1.46 | 1.05 |
| CC(=O)c1ccn2c(C(=O)c3ccc(C(F)(F)F)cc3)cc(-c3ccc(C(F)(F)F)cc3)c2c1 [Compound 21] | 1.86 | 1.19 |

| Compound | Normalized RU (relative unit of ISRE reporter signal) [1] | Normalized cell viability [2] |
| --- | --- | --- |
| CC(=O)c1ccc(-c2cc(C(=O)c3ccc(C(F)(F)F)cc3)n3ccc(C(C)=O)cc23)cc1 [Compound 22] | 1.31 | 1.09 |
| CC(=O)c1ccn2c(C(=O)c3ccc(C(F)(F)F)cc3)cc(-c3ccccc3)c2c1 [Compound 23] | 1.23 | 1.11 |
| COc1ccc(-c2cc(C(=O)c3ccc(C(F)(F)F)cc3)n3ccc(C(C)=O)cc23)cc1 [Compound 24] | 1.33 | 1.21 |
| CC(=O)c1ccn2c(C(=O)c3ccc(C(F)(F)F)cc3)cc(-c3ccc(N(C)C)cc3)c2c1 [Compound 25] | 1.75 | 1.12 |
| CC(=O)c1ccn2c(C(=O)c3ccccc3)cc(-c3ccc(C(F)(F)F)cc3)c2c1 [Compound 26] | 1.60 | 1.21 |
| CC(=O)c1ccc(-c2cc(C(=O)c3ccccc3)n3ccc(C(C)=O)cc23)cc1 [Compound 27] | 1.18 | 1.17 |
| CC(=O)c1ccn2c(C(=O)c3ccccc3)cc(-c3ccccc3)c2c1 [Compound 28] | 1.69 | 1.13 |
| COc1ccc(-c2cc(C(=O)c3ccccc3)n3ccc(C(C)=O)cc23)cc1 [Compound 29] | 1.00 | 1.20 |
| CC(=O)c1ccn2c(C(=O)c3ccccc3)cc(-c3ccc(N(C)C)cc3)c2c1 [Compound 30] | 1.33 | 1.26 |
| COc1ccc(C(=O)c2cc(-c3ccc(C(F)(F)F)cc3)c3cc(C(C)=O)ccn23)cc1 [Compound 31] | 3.42 | 1.33 |
| COc1ccc(C(=O)c2cc(-c3ccc(C(C)=O)cc3)c3cc(C(C)=O)ccn23)cc1 [Compound 32] | 2.91 | 1.11 |
| COc1ccc(C(=O)c2cc(-c3ccccc3)c3cc(C(C)=O)ccn23)cc1 [Compound 33] | 2.18 | 1.22 |
| COc1ccc(C(=O)c2cc(-c3ccc(OC)cc3)c3cc(C(C)=O)ccn23)cc1 [Compound 34] | 1.52 | 1.26 |
| COc1ccc(C(=O)c2cc(-c3ccc(N(C)C)cc3)c3cc(C(C)=O)ccn23)cc1 [Compound 35] | 2.22 | 1.26 |
| CCN(CC)c1ccc(C(=O)c2cc(-c3ccc(C(F)(F)F)cc3)c3cc(C(C)=O)ccn23)cc1 [Compound 36] | 3.37 | 1.27 |
| CCN(CC)c1ccc(C(=O)c2cc(-c3ccc(C(C)=O)cc3)c3cc(C(C)=O)ccn23)cc1 [Compound 37] | 1.62 | 1.25 |
| CCN(CC)c1ccc(C(=O)c2cc(-c3ccccc3)c3cc(C(C)=O)ccn23)cc1 [Compound 38] | 1.77 | 1.34 |
| CCN(CC)c1ccc(C(=O)c2cc(-c3ccc(OC)cc3)c3cc(C(C)=O)ccn23)cc1 [Compound 39] | 1.47 | 1.18 |
| CCN(CC)c1ccc(C(=O)c2cc(-c3ccc(N(C)C)cc3)c3cc(C(C)=O)ccn23)cc1 [Compound 40] | 1.09 | 1.17 |
| O=C(c1ccc(C(F)(F)F)cc1)c1cc(-c2ccc(C(F)(F)F)cc2)c2ccccn12 [Compound 41] | 3.85 | 1.25 |
| O=C(c1ccc(C(F)(F)F)cc1)c1cc(-c2ccccc2)c2ccccn12 [Compound 43] | 1.08 | 1.13 |
